How the values were obtained:
human GPR139 receptor [1] = target: T1, human GPR139 receptor (Homo sapiens, UniProt Q6DWJ6); assay: GPR139 Competition Binding (membrane-based, tritium-labeled ligand); settings: T-REx-CHO membranes with human GPR139; 6.5 nM tritium-labeled ligand; 11-point curve, 30 μM maximum concentration; read-out: GPR139 Binding Affinity (pKi) (converted)
T1 construct: expressed in transfected cells; host or cells: T-REx-CHO (Thermo Fisher Scientific), doxycycline-induced
T1 sequence (Q6DWJ6 1-353): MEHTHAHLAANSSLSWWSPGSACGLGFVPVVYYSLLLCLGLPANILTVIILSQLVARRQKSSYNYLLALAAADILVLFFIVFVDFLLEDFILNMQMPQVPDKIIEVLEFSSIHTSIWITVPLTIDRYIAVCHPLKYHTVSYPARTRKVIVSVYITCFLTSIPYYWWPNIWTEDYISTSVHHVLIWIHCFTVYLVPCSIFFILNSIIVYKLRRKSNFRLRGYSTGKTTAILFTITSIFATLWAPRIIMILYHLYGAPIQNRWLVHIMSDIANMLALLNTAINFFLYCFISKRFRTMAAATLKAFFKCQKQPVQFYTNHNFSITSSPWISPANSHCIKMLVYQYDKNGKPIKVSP
Method: OPR139 Competition Binding
This membrane-based assay measures the ability of compounds to competitively bind GPR139 in stably transfected TREx™-CHO membranes. To prepare the membranes, T-REx™-CHO (Thermo Fisher Scientific®) cells are stably expressed with human GPR139 receptor, whose expression is controlled by a tetracycline-inducible element. The cells are cultured in medium containing F-12K nutrient mixture-Kaighn's modification, 10% tetracycline-free FBS, Blasticidin S HCl (10 μg/mL) and Hygromycin B (200 μg/mL). GPR139 receptor expression is induced for 18 hours with 2 μg/mL doxycycline (Sigma D9891) in growth media. After addition of doxycycline, cells are harvested in PBS and pelleted by centrifugation for 5 minutes at 200×G. Liquid is aspirated off and cells are resuspended in ice cold lysis buffer (20 mM HEPES/5 mM EDTA pH 7.4/1× Roche® protease inhibitor). Samples are vortexed until homogenous and then placed on ice and homogenized using a Dounce homogenizer at 50% power (3 cycles, 10 strokes per cycle). Lysate is centrifuged at 4° C. for 10 minutes in a tabletop Sorvall® centrifuge at 2000×G. The supernatant is recovered and centrifuged in a Sorvall® ultracentrifuge at 35,000 rpm for 30 minutes at 4° C. The supernatant is discarded, and the remaining pellet resuspended in lysis buffer (20 mM HEPES/0.1 mM EGTA/Roche® protease inhibitor). Membrane protein concentration is determined using Thermo Fisher® BCA quantification kit and is aliquoted into microtubes. Tubes are snap frozen in liquid nitrogen and stored at −80° C. Prior to use, the membranes are removed from cold storage, thawed to room temperature, vortexed until homogenous and diluted in assay buffer (20 mM HEPES pH 7.3, 5 mM MgCl2, 1 mM CaCl2), 1× Thermo Scientific® Halt™ protease inhibitor (78429)).
The assay is run in 96-well, polypropylene, v-bottom plates (Greiner Bio-One® 651201). Test compound in DMSO is added to the wells of each plate (11-point dose response curve, 30 μM maximum concentration, 3-fold serial dilution). A fixed amount of tritium-labeled ligand, (S)-2-(2,3-dimethyl-7-oxothieno[2,3-d]pyridazin-6(7H)-yl)-N-(1-(4-methoxyphenyl-2-t)propan-2-yl)acetamide (Quotient Bioresearch) in assay buffer (6.5 nM assay concentration) is added to each well of the assay plate, which is then agitated on a plate shaker for 30 seconds. Next, a fixed amount of membranes in assay buffer (2 μg membranes) is added to each well of the assay plate, which is then spun for 30 seconds at 300 rpm in a tabletop Eppendorf centrifuge, and then incubated at room temperature for 20 minutes. Using a Tomtec harvester, the contents of the assay plate are transferred to Filtermat A (PerkinElmer® No. 1450-421) which prior to use is pre-soaked in 0.5% PEI (Sigma P3143) for 3 hours and dried at room temperature overnight. Following transfer, the Filtermat is washed 5 times with cold wash buffer (20 mM HEPES pH 7.3, 100 mM NaCl). The Filtermat is dried using a microwave oven and placed in a sample bag (PerkinElmer® No. 1450-432) with a scintillator sheet (PerkinElmer® No. 1450-411). The scintillator sheet is melted to the Filtermat using a heat block set to 65° C., placed in a MicroBeta® cartridge and read using a MicroBeta® scintillation counter. Binding curves are generated with a four-parameter logistic equation using GraphPad Prism® 6 and the inhibition constant Ki is reported as pKi.

human GPR139 receptor [2] = target: T1, human GPR139 receptor; assay: Measurement of GPR139 Activation Via Calcium Signaling (FLIPR, T-REx-CHO cells); format: cell-based; settings: T-REx-CHO cells stably expressing human GPR139, 11-point dose response, 10 μM maximum concentration, read-out: GPR139 Potency (pEC50) (converted)
Method: Measurement of GPR139 Activation Via Calcium Signaling
This cell-based assay measures the ability of compounds to activate GPR139 in stably transfected T-REx™-CHO cells. T-REx™-CHO cells (Thermo Fisher Scientific®) are stably expressed with human GPR139 receptor, whose expression is controlled by a tetracycline-inducible element. The cells are cultured in medium containing F-12K nutrient mixture-Kaighn's modification, TripleLE™ Express (1×)-phenol red, Dulbecco's phosphate-buffered saline (1×), 10% tetracycline-free FBS, Blasticidin S HCl (10 μg/mL) and Hygromycin B (200 μg/mL). The cells are introduced into the wells of a 384-well black clear bottom plate (Costar®) at 10,000 cells/well. GPR139 receptor expression is induced with 2 μg/mL doxycycline (Sigma D9891). The plate is allowed to stand at room temperature for 10-30 minutes and then incubated at 37° C. and 5% CO2 for 17 hours prior to assay.
Culture media is removed from cells and 45 μL of 1× calcium dye (2.5 mM) is added to each well and incubated at 37° C. and 5% CO2 for 40 minutes. The plate is removed from the incubator and allowed to stand at RT for 20 minutes without a plate cover prior to measurement of calcium signaling. The calcium dye is prepared by adding 10 mL of assay buffer (Hank's Balanced Salt Solution (1×), 1 mM HEPES at pH 7.4) to one vial of calcium dye (FLIPR® Calcium 5 Assay Kit; Molecular Devices) at room temperature, vortexing the mixture until homogenous, and transferring the dye to a 250 mL flask using 10 mL of assay, buffer to rinse the vial. The dye is subsequently transferred to a conical flask, which is filled to the 200 mL mark with assay buffer, and 1 mL of […] probenecid solution (142.68 mg/mL in 1M NaOH aq) is added.
Example compounds suspended in DMSO are received from compound management in microtiter plates (0.25 μL/well) and are diluted in assay buffer (25 μL). Following incubation of the cell plate, the Example compounds are added to the cells (11-point dose response, 10 μM maximum concentration) using a FLIPR® Tetra system (Molecular Devices) and fluorescence is measured continuously for 1 minute. EC50 curves are generated with a four-parameter logistic equation using GraphPad Prism® 6, and activation of GPR139 for each example compound is reported as pEC50.

Question: For `Cc1ccc([C@H](C)NC(=O)Cn2ncc3c(c(C(C)C)nn3C)c2=O)c(F)c1` [Example 49, (S)—N-(1-(2-fluoro-4-methylphenyl)ethyl)-2-(3-isopropyl-1-methyl-4-oxo-1,4-dihydro-5H-pyrazolo[3,4-d]pyridazin-5-yl)acetamide], which Ki (human GPR139 receptor [1]) is on record?
Answer: 0.0229 µM

Question: And the EC50 (human GPR139 receptor [2])?
Answer: 0.049 µM

Question: Which Ki (human GPR139 receptor [1]) does the source give for `Cc1ccc([C@H](C)NC(=O)Cn2ncc3c(c(C4CC4)nn3C)c2=O)c(F)c1` [Example 124, (S)-2-(3-cyclopropyl-1-methyl-4-oxo-1,4-dihydro-5H-pyrazolo[3,4-d]pyridazin-5-yl)-N-(1-(2-fluoro-4-methylphenyl)ethyl)acetamide] here?
Answer: 0.00708 µM

Question: And the EC50 (human GPR139 receptor [2])?
Answer: 0.0603 µM

Question: For `C[C@H](NC(=O)Cn1ncc2c(c(C3CC3)nn2C)c1=O)c1ccc(C(F)(F)F)cc1` [Example 115, (S)-2-(3-cyclopropyl-1-methyl-4-oxo-1,4-dihydro-5H-pyrazolo[3,4-d]pyridazin-5-yl)-N-(1-(4-(trifluoromethyl)phenyl)ethyl)acetamide], which Ki (human GPR139 receptor [1]) is on record?
Answer: 0.0589 µM

Question: What about the EC50 (human GPR139 receptor [2]) of the same compound?
Answer: 0.224 µM

Question: With `COc1cc([C@H](C)NC(=O)Cn2ncc3c(c(C)nn3C3CC3)c2=O)ccc1F` [Example 132, (S)-2-(1-cyclopropyl-3-methyl-4-oxo-1,4-dihydro-5H-pyrazolo[3,4-d]pyridazin-5-yl)-N-(1-(4-fluoro-3-methoxyphenyl)ethyl)acetamide] as the compound, how does the Ki (human GPR139 receptor [1]) read?
Answer: 2.24 µM

Question: And the EC50 (human GPR139 receptor [2])?
Answer: 0.708 µM

Question: How did the Ki (human GPR139 receptor [1]) turn out when `Cc1ccc([C@H](C)NC(=O)Cn2nc(C)c3c(c(C4CC4)nn3C)c2=O)cc1` [Example 119, (S)-2-(3-cyclopropyl-1,7-dimethyl-4-oxo-1,4-dihydro-5H-pyrazolo[3,4-d]pyridazin-5-yl)-N-(1-(p-tolyl)ethyl)acetamide] was run?
Answer: 0.00794 µM

Question: What about the EC50 (human GPR139 receptor [2]) of the same compound?
Answer: 0.0339 µM

Question: Which results are given for `C[C@H](NC(=O)Cn1ncc2ncn(C)c2c1=O)c1ccc(C(F)(F)F)cc1` [Example 139, (S)-2-(3-methyl-4-oxo-3,4-dihydro-5H-imidazo[4,5-d]pyridazin-5-yl)-N-(1-(4-(trifluoromethyl)phenyl)ethyl)acetamide]?
Answer: Ki (human GPR139 receptor [1]): 3.8 µM; EC50 (human GPR139 receptor [2]): 0.257 µM

Question: With `Cc1nn(C2CC2)c2cnn(CC(=O)N[C@@H](C)c3c(F)cc(F)cc3F)c(=O)c12` [Example 133, (S)-2-(1-cyclopropyl-3-methyl-4-oxo-1,4-dihydro-5H-pyrazolo[3,4-d]pyridazin-5-yl)-N-(1-(2,4,6-trifluorophenyl)ethyl)acetamide] as the compound, how does the Ki (human GPR139 receptor [1]) read?
Answer: 0.316 µM

Question: What about the EC50 (human GPR139 receptor [2]) of the same compound?
Answer: 0.295 µM

Question: Which results are given for `[2H]C([2H])([2H])c1ccc([C@H](C)NC(=O)Cn2ncc3ccn(C)c3c2=O)cc1` [Example 174, (S)-2-(1-methyl-7-oxo-1,7-dihydro-6H-pyrrolo[2,3-d]pyridazin-1-yl)-N-(1-(4-(methyl-d3)phenyl)ethyl)acetamide]?
Answer: Ki (human GPR139 receptor [1]): 0.234 µM; EC50 (human GPR139 receptor [2]): 0.0178 µM

Question: With `C[C@H](NC(=O)Cn1ncc2ccn(C)c2c1=O)c1ccc(C(F)(F)F)cc1` [Example 164, (S)-2-(1-methyl-7-oxo-1,7-dihydro-6H-pyrrolo[2,3-d]pyridazin-6-yl)-N-(1-(4-(trifluoromethyl)phenyl)ethyl)acetamide] as the compound, how does the Ki (human GPR139 receptor [1]) read?
Answer: 0.2 µM

Question: Which Ki (human GPR139 receptor [1]) does the source give for `Cc1nn(C2CC2)c2cnn(CC(=O)N[C@H](c3ccccc3)C3CC3)c(=O)c12` [Example 173, (S)—N-(cyclopropyl(phenyl)methyl)-2-(1-cyclopropyl-3-methyl-4-oxo-1,4-dihydro-5H-pyrazolo[3,4-d]pyridazin-5-yl)acetamide] here?
Answer: 30.2 µM

Question: How did the EC50 (human GPR139 receptor [2]) turn out when `COc1ccc([C@H](C)NC(=O)Cn2nc(C)c3cnn(C(C)(C)C)c3c2=O)cc1` [Example 9, (S)-2-(1-(tert-butyl)-4-methyl-7-oxo-1,7-dihydro-6H-pyrazolo[3,4-d]pyridazin-6-yl)-N-(1-(4-methoxyphenyl)ethyl)acetamide] was run?
Answer: 0.0955 µM

Question: For `CC(C)n1ncc2c(=O)n(CC(=O)N[C@@H](C)c3ccc(OC(F)(F)F)cc3)ncc21` [Example 87, (S)-2-(1-isopropyl-4-oxo-1,4-dihydro-5H-pyrazolo[3,4-d]pyridazin-5-yl)-N-(1-(4-(trifluoromethoxy)phenyl)ethyl)acetamide], which EC50 (human GPR139 receptor [2]) is on record?
Answer: 0.126 µM

Question: `Cc1ccc([C@H](C)NC(=O)Cn2ncc3c(c(C4CC4)nn3C(C)C)c2=O)cc1` [Example 97, (S)-2-(3-cyclopropyl-1-isopropyl-4-oxo-1,4-dihydro-5H-pyrazolo[3,4-d]pyridazin-5-yl)-N-(1-(p-tolyl)ethyl)acetamide] was tested. Which EC50 (human GPR139 receptor [2]) did it give?
Answer: 0.049 µM

Question: For `CC(C)n1ncc2c(=O)n(CC(=O)N[C@@H](C)c3ccc(C(F)(F)F)cc3)ncc21` [Example 86, (S)-2-(1-isopropyl-4-oxo-1,4-dihydro-5H-pyrazolo[3,4-d]pyridazin-5-yl)-N-(1-(4-(trifluoromethyl)phenyl)ethyl)acetamide], which EC50 (human GPR139 receptor [2]) is on record?
Answer: 0.0832 µM

Question: How did the EC50 (human GPR139 receptor [2]) turn out when `Cc1ccc([C@H](C)NC(=O)Cn2nc(C)c3c(cnn3C(C)C)c2=O)cc1` [Example 77, (S)-2-(1-isopropyl-7-methyl-4-oxo-1,4-dihydro-5H-pyrazolo[3,4-d]pyridazin-5-yl)-N-(1-(p-tolyl)ethyl)acetamide] was run?
Answer: 0.0912 µM

Question: Which EC50 (human GPR139 receptor [2]) does the source give for `Cc1ccc([C@H](C)NC(=O)Cn2ncc3c(c(C4CC4)nn3C(C)C)c2=O)c(F)c1` [Example 95, (S)-2-(3-cyclopropyl-1-isopropyl-4-oxo-1,4-dihydro-5H-pyrazolo[3,4-d]pyridazin-5-yl)-N-(1-(2-fluoro-4-methylphenyl)ethyl)acetamide] here?
Answer: 0.117 µM

Reference: patent publication US12370192B2, “Azole-fused pyridazin-3(2H)-one derivatives” (TAKEDA PHARMACEUTICAL COMPANY LIMITED, priority 2019, dated 2025)
